The results in this text go back to patent publication US20200339537A1, “NOVEL COMPOUND AS INHIBITOR AGAINST BINDING OF PF34 PROTEIN TO NEDD4-1 PROTEIN AND USE THEREOF” (ENHANCEDBIO INC., priority 2017, published 2020).

Each structure is given as a SMILES string.

Test [1] addresses T1, binding between p34 protein and NEDD4-1 protein (Homo sapiens, UniProt P46934+Q9UHV2).
T1 construct: FLAG or 6xHis (known only from the detection antibodies)
T1 sequence (P46934 1-1319): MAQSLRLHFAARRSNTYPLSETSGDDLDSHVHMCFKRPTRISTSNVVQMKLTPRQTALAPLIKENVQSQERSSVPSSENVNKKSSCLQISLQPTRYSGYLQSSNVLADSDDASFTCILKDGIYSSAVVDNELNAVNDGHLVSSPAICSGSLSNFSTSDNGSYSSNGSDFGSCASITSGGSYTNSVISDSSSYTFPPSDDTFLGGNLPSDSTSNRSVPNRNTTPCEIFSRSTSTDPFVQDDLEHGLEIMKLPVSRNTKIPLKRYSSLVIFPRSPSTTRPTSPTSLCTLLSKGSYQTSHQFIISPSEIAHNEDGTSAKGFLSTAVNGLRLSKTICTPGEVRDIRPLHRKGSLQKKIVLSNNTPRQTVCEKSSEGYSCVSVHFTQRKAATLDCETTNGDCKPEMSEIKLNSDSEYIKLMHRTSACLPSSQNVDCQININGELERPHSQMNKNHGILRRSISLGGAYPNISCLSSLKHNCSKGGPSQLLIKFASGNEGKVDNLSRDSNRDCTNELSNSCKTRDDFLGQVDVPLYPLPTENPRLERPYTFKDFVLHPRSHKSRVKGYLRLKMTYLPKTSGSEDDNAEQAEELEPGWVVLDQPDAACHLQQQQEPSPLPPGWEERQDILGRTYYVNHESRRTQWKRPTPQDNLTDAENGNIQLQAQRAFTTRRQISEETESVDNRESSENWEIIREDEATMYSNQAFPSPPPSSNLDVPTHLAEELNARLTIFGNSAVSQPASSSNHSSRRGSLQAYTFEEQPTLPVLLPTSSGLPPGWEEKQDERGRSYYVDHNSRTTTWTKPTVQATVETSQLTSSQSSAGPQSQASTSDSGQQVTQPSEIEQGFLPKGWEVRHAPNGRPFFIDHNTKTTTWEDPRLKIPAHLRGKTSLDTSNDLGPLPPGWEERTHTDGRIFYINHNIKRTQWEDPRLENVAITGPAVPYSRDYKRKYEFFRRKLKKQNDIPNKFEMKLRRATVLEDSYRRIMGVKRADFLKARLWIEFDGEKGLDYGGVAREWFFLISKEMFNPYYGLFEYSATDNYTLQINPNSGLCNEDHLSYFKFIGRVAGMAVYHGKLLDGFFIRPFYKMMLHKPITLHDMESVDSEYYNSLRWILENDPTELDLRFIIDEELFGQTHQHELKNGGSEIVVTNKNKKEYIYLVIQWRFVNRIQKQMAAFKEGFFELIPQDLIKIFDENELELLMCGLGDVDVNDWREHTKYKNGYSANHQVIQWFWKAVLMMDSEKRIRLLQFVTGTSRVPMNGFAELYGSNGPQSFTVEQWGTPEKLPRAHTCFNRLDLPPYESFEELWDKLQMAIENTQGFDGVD
T1 sequence (Q9UHV2 1-236): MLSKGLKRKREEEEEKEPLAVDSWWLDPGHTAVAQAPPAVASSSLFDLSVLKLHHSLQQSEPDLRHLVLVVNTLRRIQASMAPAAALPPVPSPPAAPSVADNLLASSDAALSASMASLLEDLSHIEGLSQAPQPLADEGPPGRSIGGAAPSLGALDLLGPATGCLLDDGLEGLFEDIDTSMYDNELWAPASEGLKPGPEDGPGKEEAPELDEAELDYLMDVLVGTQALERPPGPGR
The test can be described thus: Inhibitory activity on binding between p34 and NEDD4-1, FRET (HTRF) assay. The note with it: pH 7.4, compound 10 μM; 1×PBS pH 7.4, 0.1% BSA, 2% DMSO; 384-well. The procedure:
Inhibitory activity of the compound on binding between p34 and NEDD4-1 was evaluated using p34 protein and NEDD4-1 protein based on the HTRF technology developed by Cisbio. In this assay, a fluorescence resonance energy transfer (FRET) signal was measured in the presence of terbium-labeled anti-FLAG antibody and d2-labeled anti-6XHis antibody. Experiments were performed in 384-well plates under a condition of 1×PBS pH 7.4, 0.1% BSA, and 2% DMSO. A background signal was measured in the absence of the p34-NEDD4-1 proteins, and a non-inhibiting signal was measured with addition of only a solvent (2% DMSO). […] Subsequently, inhibitory activity of the compound on p34-NEDD4-1 was calculated in %.

Test [2] has as its system PTEN (lipid phosphatase activity) in human colon cancer cell line SW620. Description: cells. Format: cell-based. Conditions: Homo sapiens, SW-620, 48 h, compound 5 μM, PTEN immunoprecipitation, diC8-PIP3 substrate, Biomol Green, read-out: PTEN activity (relative fold @5 μM).

By inhibition is commonly meant the share of the control response that was lost under treatment. A lower inhibition goes with a weak effect. In turn, `O=C(NCc1nc2ccccc2[nH]1)C1CCN(Cc2c[nH]c3ccccc23)CC1` [Example 61] displayed an inhibition at 10 µM in test [1] of 52.3%. Moreover, the fold induction at 5 µM in test [2] was 2.1.
The like results for `O=C(NCc1cncs1)C1CCN(Cc2c[nH]c3ccc(C(F)(F)F)cc23)CC1` [Example 31] were, in that order, 58.6% and 1.5.
The like results for `O=C(NCc1nc2ccc(F)cc2[nH]1)C1CCN(Cc2ccc3[nH]ccc3c2)CC1` [Example 14] were, in that order, 44.1% and 3.8.
`O=C(NCc1nc2cc(Cl)ccc2[nH]1)C1CCN(Cc2c[nH]c3ccc(Cl)cc23)CC1` [Example 4] yielded an inhibition at 10 µM in test [1] of 30.6%. The fold induction at 5 µM in test [2] stood at 1.8.
The like results for `O=C(NCc1cncs1)N1CCN(Cc2c[nH]c3ccc(Cl)cc23)CC1` [Example 85] were, in that order, 44% and 1.9.
In the same order, the values of `O=C(NCc1nccs1)N1CCN(Cc2c[nH]c3ccc(F)cc23)CC1` [Example 81] are 50.7% and 2.2.
The like results for `O=C(NCc1nc2cc(F)ccc2[nH]1)C1CCN(Cc2c[nH]c3ccc(Cl)cc23)CC1` [Example 6] were, in that order, 36.6% and 3.
In the case of `O=C(NCc1nc2cc(F)ccc2[nH]1)C1CCN(Cc2c[nH]c3ccc(C(F)(F)F)cc23)CC1` [Example 37], the inhibition at 10 µM in test [1] amounted to 39.4%. Further, the fold induction at 5 µM in test [2] came to 1.5.
`O=C(NCc1nc2cc(F)c(F)cc2[nH]1)C1CCN(Cc2c[nH]c3ccc(C(F)(F)F)cc23)CC1` [Example 39] displayed an inhibition at 10 µM in test [1] of 37.7%. Moreover, in test [2], the fold induction at 5 µM came out at 1.6.
The like results for `CCC(NC(=O)C1CCN(Cc2c[nH]c3ccc(C(F)(F)F)cc23)CC1)c1nc2ccccc2[nH]1` (centres unmarked) [Example 35] were, in that order, 45.5% and 1.5.
In the same order, the values of `O=C(Nc1ccccc1)N1CCN(Cc2ccc3[nH]ccc3c2)CC1` [Example 77] are 35.3% and 1.8.
The like results for `Cc1ccc2[nH]c(CNC(=O)N3CCN(Cc4c[nH]c5ccc(Cl)cc45)CC3)nc2c1` [Example 71] were, in that order, 33.7% and 1.8.
As to `O=C(C1CCN(Cc2ccc3[nH]ccc3c2)CC1)N1CCn2cc(C(F)(F)F)nc2C1` [Example 17], the inhibition at 10 µM in test [1] came out at 48%. Besides, the fold induction at 5 µM in test [2] worked out at 2.2.
The compound `O=C(NCc1nc2ccccc2o1)C1CCN(Cc2c[nH]c3ccc(C(F)(F)F)cc23)CC1` [Example 32] displayed an inhibition at 10 µM in test [1] of 61.1%. For the same compound, in test [2], the fold induction at 5 µM was determined as 1.8.
The like results for `O=C(NCc1cncs1)N1CCN(Cc2c[nH]c3ccc(F)cc23)CC1` [Example 86] were, in that order, 41.6% and 2.
The like results for `Cc1ccc2[nH]c(C(C)NC(=O)C3CCN(Cc4c[nH]c5ccc(C(F)(F)F)cc45)CC3)nc2c1` (centres unmarked) [Example 29] were, in that order, 59.1% and 2.2.
In the same order, the values of `O=C(Nc1ccc(C(F)(F)F)cc1)N1CCN(Cc2ccc3[nH]ccc3c2)CC1` [Example 68] are 49.6% and 1.8.
Take `O=C(Nc1ccccn1)N1CCN(Cc2ccc3[nH]ccc3c2)CC1` [Example 72]: in test [1], testing at 10 µM gave an inhibition of 55.5%. For the same compound, the fold induction at 5 µM in test [2] came out at 1.9.
In the same order, the values of `O=C(NCc1nc2ccccc2[nH]1)C1CCN(Cc2c[nH]c3ccc(Cl)cc23)CC1` [Example 45] are 33.8% and 2.8.
The like results for `O=C(NCc1cncs1)N1CCN(Cc2ccc3cc[nH]c3c2)CC1` [Example 87] were, in that order, 48.7% and 1.9.
On to `Cc1ccc2nc(CNC(=O)C3CCN(Cc4ccc5[nH]ccc5c4)CC3)[nH]c2c1` [Example 20], for which the inhibition at 10 µM in test [1] came out at 51.5%. In addition, in test [2], the fold induction at 5 µM turned out to be 1.9.
In the same order, the values of `O=C(NC(Cc1ccccc1)c1nc2ccccc2[nH]1)C1CCN(Cc2c[nH]c3ccc(C(F)(F)F)cc23)CC1` (centres unmarked) [Example 33] are 41.2% and 2.5.
`O=C(NCc1cncs1)N1CCN(Cc2ccc3[nH]ccc3c2)CC1` [Example 84]: in test [1], the inhibition at 10 µM came out at 44.1%. In addition, in test [2], the fold induction at 5 µM is 2.9.
In the same order, the values of `O=C(NCc1nccs1)N1CCN(Cc2n[nH]c3ccccc23)CC1` [Example 79] are 54.4% and 2.2.
`O=C(Nc1ncccn1)N1CCN(Cc2ccc3[nH]ccc3c2)CC1` [Example 73]: at 10 µM the inhibition in test [1] was 53.5%. For the same compound, in test [2], the fold induction at 5 µM is 2.1.
For the compound `CC(NC(=O)C1CCN(Cc2ccc3[nH]ccc3c2)CC1)c1nc2ccccc2[nH]1` (centres unmarked) [Example 13], at 10 µM the inhibition in test [1] was 38.9%. Besides, the fold induction at 5 µM in test [2] was 3.2.
The compound `O=C(C1CCN(Cc2c[nH]c3ccc(C(F)(F)F)cc23)CC1)N1CCn2cc(C(F)(F)F)nc2C1` [Example 30] yielded an inhibition at 10 µM in test [1] of 59.1%. For the same compound, the fold induction at 5 µM in test [2] came to 1.5.
In the same order, the values of `CC(NC(=O)C1CCN(Cc2c[nH]c3ccc(C(F)(F)F)cc23)CC1)c1nc2ccccc2[nH]1` (centres unmarked) [Example 34] are 59.6% and 1.9.
